# Test system: diabetic patients (type 1 and type 2 diabetes mellitus)
# Assay: Research Plan 2: therapy of diabetes mellitus targeting a bone marrow-derived abnormal hematopoietic stem cell
# Format: in vivo, human
# Conditions: type 1 and type 2 diabetic patients; 12 weeks therapy; predicted result
substance,measurement,value
insulin alone: insulin therapy alone (control group of Research Plan 2),Effect of eliminating an abnormal hematopoietic stem cell,not eliminated
same,Effect of healing diabetes mellitus,not observed
same,Therapeutic effect on a complication,"observed to some extent, but the complication does not heal"

# Source: patent publication US20230025003A1, “DIABETES THERAPY TARGETING ABNORMAL STEM CELLS” (Biozipcode, Inc., priority 2019, published 2023)
